Measured values published in US5968526A, “T cell epitopes of the major allergens from Dermatophagoides (house dust mite)” (Immulogic Pharamaceutical Corporation, priority 1995, dated 1999).

Assays:
[1] = tested on: T cell lines primed in vitro to Der f I; assay: secondary proliferation of Der f I-primed T cell lines (Examples VI, VII, XI); assay type: cell-based, human; details: for T cell response to Der p I peptides: Der f I primed, 8 positive experiments, FIG. 8
Procedure, shortened: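 PBMC from house dust mite-allergic patients were primed in vitro with recombinant or affinity-purified Der f I at 20 μg/ml (or 10 μg/ml), then rechallenged with Der f I peptides. Antigen-presenting cells were x-irradiated autologous PBMC (3500 Rads) or EBV-transformed B cells (25,000 Rads). Read-out was T cell proliferation.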

[2] = tested on: T cell lines primed in vitro with Der p II; assay: T cell proliferation with fine map and modified Group II peptides (Example XIV); assay type: cell-based, human; details: for positive T cell responses, modified peptides: 21 T cell lines, Der p II primed, FIG. 32a; for T cell response, Group II peptides: FIGS. 32a-b
Procedure, shortened: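 Bulk T cell lines primed with 30 μg/ml native Der p I or Der p II for 5-6 days, rested with IL-2/IL-4, then restimulated 3 days with peptides plus irradiated autologous EBV-B cells or PBMs. Proliferation by 16-20 h [3H]thymidine uptake; stimulation index = peptide CPM / medium CPM, averaged over responding patients.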

Row | Substance | T cell response to Der p I peptides [1] | positive T cell responses, modified peptides [2] | T cell response, Group II peptides [2] | further results
1 | DF I-22.2: VAATESAYLAYRNTSLDLSEQELVD, amino acid residues 40-64 of Der f I |  |  |  | stimulation index, rank in group ([1]; 9 patients, FIG. 16a / 16b): highest stimulation index
2 | DP I-1: Der p I peptide, amino acid residues 1-20 (TNACSINGNAPAEIDLRQMR) | respond significantly |  |  | 
3 | DP I-3: Der p I peptide (TVTPIRMQGGCGSCWAFSGVAATESAYLA) | respond significantly |  |  | 
4 | DP II-20.9: modified Der p II peptide; unique peptide (DQVDVKDCANHEIKKVLVPGCHGSE) |  | all 21 T cell lines responded positively | positive T cell studies | 
5 | DP II-22.14: DKELEAVFEANQNTKTAKAE; unique peptide |  | all 21 T cell lines responded positively | positive T cell studies | 
6 | DP II-22: QLEAVFEANQNTKTAKIEIKASIDGLEV |  |  | positive T cell studies | 
